Reference: patent US8329913B2, “Carbazole derivative, solvate thereof, or pharmaceutically acceptable salt thereof” (Zeria Pharmaceutical Co., Ltd., priority 2004, dated 2012)

Biological target: T1, human PPARγ (Homo sapiens, UniProt P37231)
T1 construct: 1.6 kb of fragment of the prepared plasmid pGEMT-hPPARg2 including human PPARγ gene; expressed in transfected cells; host or cells: CV-1 cells, transient transfection with pCI-hPPARg2, pCI-hRXRa and the reporter pGL3-PPRE3-TK
T1 sequence (P37231 1-505): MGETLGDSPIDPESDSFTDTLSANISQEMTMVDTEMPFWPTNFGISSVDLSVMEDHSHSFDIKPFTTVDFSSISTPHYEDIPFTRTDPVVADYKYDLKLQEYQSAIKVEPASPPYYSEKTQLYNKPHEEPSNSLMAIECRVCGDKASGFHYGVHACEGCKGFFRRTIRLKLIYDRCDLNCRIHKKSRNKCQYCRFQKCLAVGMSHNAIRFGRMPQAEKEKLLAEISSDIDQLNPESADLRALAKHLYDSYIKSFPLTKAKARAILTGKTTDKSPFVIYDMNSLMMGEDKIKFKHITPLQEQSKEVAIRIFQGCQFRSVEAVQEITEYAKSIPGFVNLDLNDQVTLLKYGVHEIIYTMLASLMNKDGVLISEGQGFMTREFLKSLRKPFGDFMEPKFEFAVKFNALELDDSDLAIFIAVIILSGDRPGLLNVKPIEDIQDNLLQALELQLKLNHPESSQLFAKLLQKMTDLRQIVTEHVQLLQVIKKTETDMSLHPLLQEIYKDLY
T1 sequence (P19793 1-462 partner): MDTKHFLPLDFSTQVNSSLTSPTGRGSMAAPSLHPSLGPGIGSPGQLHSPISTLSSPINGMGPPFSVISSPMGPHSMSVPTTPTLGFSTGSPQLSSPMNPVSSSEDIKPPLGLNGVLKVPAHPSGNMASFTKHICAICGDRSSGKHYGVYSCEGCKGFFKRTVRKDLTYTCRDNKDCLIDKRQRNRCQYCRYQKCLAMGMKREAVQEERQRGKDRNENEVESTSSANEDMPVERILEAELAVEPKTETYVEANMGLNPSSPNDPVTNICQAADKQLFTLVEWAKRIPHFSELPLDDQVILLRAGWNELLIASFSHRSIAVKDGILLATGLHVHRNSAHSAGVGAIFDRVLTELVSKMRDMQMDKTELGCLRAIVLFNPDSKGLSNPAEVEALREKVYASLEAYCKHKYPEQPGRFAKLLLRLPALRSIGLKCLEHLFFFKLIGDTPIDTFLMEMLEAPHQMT
Assay: Human PPARγ antagonist assay (luciferase reporter in transfected CV-1 cells)
Assay type: cell-based
Conditions: CV-1 cells expressing human PPARγ and RXRα with reporter plasmid; pioglitazone 1 μM as stimulant; 24 hours; read-out: Human PPARγ antagonist activities, Inhibition IC50
Method: CV-1 cells (96 well plate), where human PPARγ and RXRα has expressed in the transient transfection of reporter plasmid (see reference 5a) were washed once with PBS (100 μL/well), and then supplemented with 100 μL/well […], as well as pioglitazone (not limited to pioglitazone shown as an example, but may be any PPARγ agonist) at a final concentration of 1 μM as a stimulant were added, and incubated in a 5% CO2 incubator at 37° C. for 24 hours. After removing the medium, the CV-1 cells were washed once with PBS (100 μL/well), and supplemented with 60 μL/well of 1× Passive Lysis Buffer (manufactured by Promega Corporation). The CV-1 cells were incubated at room temperature for 30 minutes, stirred, and then by using Dual-Luciferase Reporter Assay System (manufactured by Promega Corporation), luciferase activities of firefly and renilla were measured using 1420 ARVO Multilabel Counter (manufactured by Wallac Oy). Also, the same experiments as that described above were respectively carried out for the cases where only the above-mentioned stimulants (100 nM, 1 μM, 10 μM) were used, where only the above-mentioned test compounds were used, or where neither was used (nonsupplemented), and luciferase activities of firefly and renilla were measured. Values corrected by dividing the firefly luciferase activities by the renilla luciferase activities were calculated as specific activities and used for evaluations.
Human PPARγ2 antagonist activities of the test compounds were evaluated by using a percentage (inhibition) where the specific activity in case only […] was added is regarded as 0% and the specific activity in case the test compound and the stimulant were not added is regarded as 100%. Moreover, the concentration of the test compound indicating the inhibition rate of 50% was calculated as the IC50 value. Also, human PPARγ2 agonist activities of the test compounds were evaluated by using a percentage (activity) where the specific activity when nonsupplemented is regarded as 0% and the specific activity in case only 10 μM stimulant was added is regarded as 100%, from the specific activity in case only the test compound is used.
CV-1 cells were cultured in DMEM medium (manufactured by Invitrogen Corporation) including 10% fetal bovine serum (manufactured by Dainippon Pharmaceutical Co., Ltd.) in 225T-Flask (manufactured by Corning Costar). The cells were detached by 0.5 g/L trypsin-0.2 g/L EDTA (ethylene diamine tetra-acetic acid) (manufactured by Invitrogen Corporation), and then suspended in the DMEM medium including 10% fetal bovine serum to a cell concentration of 2×10^5 cells/mL. Thereafter, the cells were seeded into 96 well plate at 2×10^4 cells/0.1 mL/well, incubated in the 5% CO2 incubator at 37° C. overnight, and then the plasmids prepared by the above-mentioned reference 1a, reference 3a, and reference 4a were transfected into cells by using a lipofectamine reagent (manufactured by Invitrogen Corporation) according to the attached manual.
Namely, after CV-1 cells were cultured overnight, the cells were washed with PBS (100 μL/well). Thereafter the cells were incubated for 5 hours at 37° C./5% CO2 in the MEM medium (manufactured by Invitrogen Corporation) including 430 ng/mL of human PPARγ expression plasmid (pCI-hPPARg2) prepared by the reference 1a, 430 ng/mL of human RXRα expression plasmid (pCI-hRXRa) prepared by the reference 3a, and 140 ng/mL of the reporter plasmid (pGL3-PPRE3-TK) prepared by the reference 4a, 10 ng/mL of phRL-TK vector (manufactured by Promega Corporation) and 2 μL/mL of lipofectamine.

Row | Compound | IC50 [nM]
1 | COc1cc(Cn2c3ccccc3c3c(OC(C)C(=O)O)cccc32)ccc1OCc1nc(-c2ccccc2)oc1C (racemic) [Example 4, (±)-2-{9-[3-methoxy-4-((5-methyl-2-phenyl-oxazole-4-yl)methoxy)-benzyl]-9H-carbazole-4-yloxy}propionic acid] | 939
2 | CCC(Oc1cccc2c1c1ccccc1n2Cc1ccc(OCc2nc(-c3ccccc3)oc2C)c(OC)c1)C(=O)O (racemic) [Example 5, (±)-2-{9-[3-methoxy-4-((5-methyl-2-phenyl-oxazole-4-yl)methoxy)-benzyl]-9H-carbazole-4-yloxy}butyric acid] | 353
3 | COc1cc(Cn2c3ccccc3c3c(OCCC(C)C(=O)O)cccc32)ccc1OCc1nc(-c2ccccc2)oc1C (racemic) [Example 27, (±)-4-{9-[3-methoxy-4-((5-methyl-2-phenyl-oxazole-4-yl)methoxy)-benzyl]-9H-carbazole-4-yloxy}-2-methyl-butyric acid] | 688
4 | COc1cc(Cn2c3ccccc3c3c(OC(C)C(=O)[O-])cccc32)ccc1OCc1nc(-c2ccccc2)oc1C.[Na+] (racemic) [Example 30] | 983
5 | COc1cc(Cn2c3ccccc3c3c(OCCC(C)C(=O)[O-])cccc32)ccc1OCc1nc(-c2ccccc2)oc1C.[Na+] (racemic) [Example 37] | 354
6 | COc1cc(Cn2c3ccccc3c3c(OC(C)(C)C(=O)O)cccc32)ccc1OCc1nc(-c2ccccc2)oc1C [Example 3, 2-{9-[3-methoxy-4-((5-methyl-2-phenyl-oxazole-4-yl)methoxy)-benzyl]-9H-carbazole-4-yloxy}-2-methyl-propionic acid] | 420
7 | COc1cc(Cn2c3ccccc3c3c(OC(C)(C)C(=O)O)cccc32)ccc1OCc1nc(-c2ccco2)oc1C [Example 7, 2-{9-[4-((2-(furan-2-yl)-5-methyl-oxazole-4-yl)methoxy)-3-methoxy-benzyl]-9H-carbazole-4-yloxy-}2-methyl-propionic acid] | 1910
8 | COc1cc(Cn2c3ccccc3c3c(OC(C)(C)C(=O)O)cccc32)ccc1OCc1nc(-c2cccs2)oc1C [Example 8, 2-{9-[3-methoxy-4-((5-methyl-2-(thiophene-2-yl)-oxazole-4-yl)methoxy)-benzyl]-9H-carbazole-4-yloxy}-2-methyl-propionic acid] | 545
9 | COc1cc(Cn2c3ccccc3c3c(OC(C)(C)C(=O)O)cccc32)ccc1OCc1nc(-c2ccncc2)oc1C [Example 9, 2-{9-[3-methoxy-4-((5-methyl-2-(pyridine-4-yl)-oxazole-4-yl)methoxy)-benzyl]-9H-carbazole-4-yloxy}-2-methyl-propionic acid] | 5140
10 | Cc1oc(-c2ccccc2)nc1COc1ccc(Cn2c3ccccc3c3c(OC(C)(C)C(=O)O)cccc32)cc1 [Example 13, 2-methyl-2-{9-[4-((5-methyl-2-phenyl-oxazole-4-yl)methoxy)-benzyl]-9H-carbazole-4-yloxy}propionic acid] | 5870
11 | COc1cc(Cn2c3ccccc3c3c(OC(C)(C)C(=O)O)cccc32)ccc1OCc1nc(-c2ccccc2)sc1C [Example 15, 2-{9-[3-methoxy-4-((5-methyl-2-phenyl-thiazole-4-yl)methoxy)-benzyl]-9H-carbazole-4-yloxy}-2-methyl-propionic acid] | 5980
12 | COc1cc(Cn2c3ccccc3c3c(OCC(C)(C)C(=O)O)cccc32)ccc1OCc1nc(-c2ccccc2)oc1C [Example 22, 3-{9-[3-methoxy-4-((5-methyl-2-phenyl-oxazole-4-yl)methoxy)-benzyl]-9H-carbazole-4-yloxy}-2,2-dimethyl-propionic acid] | 122
13 | COc1cc(Cn2c3ccccc3c3c(OCC(C)(C)C(=O)O)cccc32)ccc1OCc1nc(-c2ccco2)oc1C [Example 23, 3-{9-[4-((2-(furan-2-yl)-5-methyl-oxazole-4-yl)methoxy)-3-methoxy-benzyl]-9H-carbazole-4-yloxy}-2,2-dimethyl-propionic acid] | 93
14 | COc1cc(Cn2c3ccccc3c3c(OCC(C)(C)C(=O)O)cccc32)ccc1OCc1nc(-c2cccs2)oc1C [Example 24, 3-{9-[3-methoxy-4-((5-methyl-2-(thiophene-2-yl)-oxazole-4-yl)methoxy)-benzyl]-9H-carbazole-4-yloxy}-2,2-dimethyl-propionic acid] | 71
15 | COc1cc(Cn2c3ccccc3c3c(OCC(C)(C)C(=O)O)cccc32)ccc1OCc1nc(-c2ccncc2)oc1C [Example 25, 3-{9-[3-methoxy-4-((5-methyl-2-pyridine-4-yl-oxazole-4-yl)methoxy)-benzyl]-9H-carbazole-4-yloxy}-2,2-dimethyl-propionic acid] | 430
16 | COc1cc(Cn2c3ccccc3c3c(OC(C)(C)C(=O)[O-])cccc32)ccc1OCc1nc(-c2ccccc2)oc1C.[Na+] [Example 28, sodium 2-{9-[3-methoxy-4-((5-methyl-2-phenyl-oxazole-4-yl)methoxy)-benzyl]-9H-carbazole-4-yloxy}-2-methyl-propionate] | 398
17 | CCC(Oc1cccc2c1c1ccccc1n2Cc1ccc(OCc2nc(-c3ccccc3)oc2C)c(OC)c1)C(=O)[O-].[Na+] (stereo not drawn) [Example 31] | 406
18 | COc1cc(Cn2c3ccccc3c3c(OC(C)(C)C(=O)[O-])cccc32)ccc1OCc1nc(-c2cccs2)oc1C.[Na+] [Example 32] | 422
19 | COc1cc(Cn2c3ccccc3c3c(OCC(C)(C)C(=O)[O-])cccc32)ccc1OCc1nc(-c2ccccc2)oc1C.[Na+] [Example 34] | 85
20 | CC[C@H](Oc1cccc2c1c1ccccc1n2Cc1ccc(OCc2nc(-c3ccccc3)oc2C)c(OC)c1)C(=O)[O-].[Na+] [Example 38, sodium (S)-(+)-2-{9-[3-methoxy-4-((5-methyl-2-phenyl-oxazole-4-yl)methoxy)-benzyl]-9H-carbazole-4-yloxy}butyrate] | 330

Same assay, conditions: at 10 μM test compound; CV-1 cells expressing human PPARγ and RXRα; pioglitazone as stimulant; read-out: Human PPARγ antagonist activities, Inhibition % at 10 μM

Row | Compound | inhibition at 10 µM [%]
21 | COc1cc(Cn2c3ccccc3c3c(OC(C)(C)C(=O)O)cccc32)ccc1OCc1sc(-c2ccccc2)nc1C [Example 16, 2-{9-[3-methoxy-4-((4-methyl-2-phenyl-thiazole-5-yl)methoxy)-benzyl]-9H-carbazole-4-yloxy}-2-methyl-propionic acid] | 38.2
